Laboratory results as given in the supplement of paper PMC3493320.

Tested on: NCI-H295R
Test: IC50 (antiproliferative, ATP content)
Conditions: 48 h
In short: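 In 1536-well plates, 1500 adrenocortical carcinoma cells per well were grown overnight in serum-free, ITS-supplemented DMEM before compounds were pin-transferred at 8 final concentrations (0.6 nM to 46 µM). After 48 h at 37 °C and 5% CO2, CellTiter-Glo luminescence was read following 20 min at room temperature and normalised to vehicle and positive-control wells. IC50 values came from logistic curve fits, with compounds lacking any concentration response listed as above the top dose.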

Row | IC50 [µM] | SMILES
1 | > 46 | CN(CCOc1ccc(NS(C)(=O)=O)cc1)CCc1ccc(NS(C)(=O)=O)cc1
2 | > 46 | OC[C@H]1O[C@@H]2O[C@H]3[C@H](O)[C@@H](O)[C@@H](O[C@H]4[C@H](O)[C@@H](O)[C@@H](O[C@H]5[C@H](O)[C@@H](O)[C@@H](O[C@H]6[C@H](O)[C@@H](O)[C@@H](O[C@H]7[C@H](O)[C@@H](O)[C@@H](O[C@H]8[C@H](O)[C@@H](O)[C@@H](O[C@H]1[C@H](O)[C@H]2O)O[C@@H]8CO)O[C@@H]7CO)O[C@@H]6CO)O[C@@H]5CO)O[C@@H]4CO)O[C@@H]3CO
3 | > 46 | Oc1ccc(C2CNCCc3c2cc(O)c(O)c3Cl)cc1 (configuration not stated)
4 | > 46 | CCN(CC)CCCC(C)Nc1cc(C=Cc2ccccc2Cl)nc2cc(Cl)ccc12 (configuration not stated)
5 | > 46 | CN1CCC(OC(c2ccccc2)c2ccccc2)CC1.Cl
6 | > 46 | CCCCCCCCCCOc1cc2c(O)c(C(=O)OCC)cnc2cc1OCC
7 | > 46 | CC(=O)CCCCn1c(=O)c2c(ncn2C)n(C)c1=O
8 | > 46 | Cl.NC1=NCC2c3ccccc3Cc3ccccc3N12 (configuration not stated)
9 | > 46 | CN(C)CCOC(=O)C(c1ccccc1)C1(O)CCCC1.Cl (configuration not stated)
10 | > 46 | Cc1c(OCC(F)(F)F)ccnc1CS(=O)c1nc2ccccc2[nH]1 (configuration not stated)
11 | > 46 | CC1CCC(NC(=O)N(CCCl)N=O)CC1 (configuration not stated)
12 | > 46 | CO[C@H]1C[C@@H]2CC[C@@H](C)[C@@](O)(O2)C(=O)C(=O)N2CCCC[C@H]2C(=O)O[C@H]([C@H](C)C[C@@H]2CC[C@@H](OC(=O)C(C)(CO)CO)[C@H](OC)C2)CC(=O)[C@H](C)/C=C(\C)[C@@H](O)[C@@H](OC)C(=O)[C@H](C)C[C@H](C)/C=C/C=C/C=C/1C
13 | > 46 | CCCCCCCCCCCCCCCC(=O)O
14 | > 46 | O=c1[nH]c(=O)n([C@H]2C[C@H](O)[C@@H](CO)O2)cc1Br
15 | > 46 | O=C(OC[C@H]1O[C@](O)(COC(=O)c2cccnc2)[C@@H](OC(=O)c2cccnc2)[C@@H]1OC(=O)c1cccnc1)c1cccnc1
16 | > 46 | CCN(CC)CCOC(=O)C(Cc1cccc2ccccc12)CC1CCCO1.O=C(O)C(=O)O (configuration not stated)
17 | > 46 | O.O.O.O.O=C1[O][Mg]2([O]C(=O)c3ccccc3[O]2)[O]c2ccccc21
18 | > 46 | CN1CCN(C2=Nc3cc(Cl)ccc3Nc3ccccc32)CC1
19 | > 46 | O=C(Oc1ccccc1C(=O)O)c1ccccc1O
20 | > 46 | CCCCCCCCCCCCCCCCCCOC[C@H](COP(=O)([O-])OCC[N+](C)(C)C)OC
21 | > 46 | Cc1nc(-c2ccc(Cl)cc2)oc1COC(C)(C)C(=O)O
22 | > 46 | O=C([O-])Cc1ccccc1Nc1c(Cl)cccc1Cl.[Na+]

Row | IC50 [µM] | SMILES
23 | > 46 | CC(C)(S)[C@@H](N)C(=O)O
24 | > 46 | NC(Cc1ccc(Cl)cc1)C(=O)O (configuration not stated)
25 | > 46 | OCCO[C@@H]1[C@@H](O)[C@H](O)[C@@H](CO)O[C@@H]1O
26 | > 46 | CC1(C)O[C@@H]2[C@@H](CO[C@@]3(COS(N)(=O)=O)OC(C)(C)O[C@@H]23)O1
27 | > 46 | O=C(OOC(=O)c1ccccc1)c1ccccc1
28 | > 46 | COc1ccc([C@@H]2Sc3ccccc3N(CCN(C)C)C(=O)[C@@H]2OC(C)=O)cc1
29 | > 46 | CC(Cc1ccccc1)(NC(=O)CN)c1ccccc1.Cl (configuration not stated)
30 | > 46 | O[C@]([C@@H](CC3)CC[C@@]3(C#N)C(C=C1OC2CCCC2)=CC=C1OC)=O
31 | > 46 | CCC1OC(=O)C[C@@H](O)[C@H](C)[C@@H](O[C@@H]2O[C@H](C)C[C@H](N(C)C)[C@H]2O)[C@@H](CC=O)C[C@@H](C)C(=O)/C=C/[C@]2(C)OC2C1C (some centres not stated)
32 | > 46 | O=C(CCCN1CCC(C(=O)c2ccc(F)cc2)CC1)c1ccc(F)cc1
33 | > 46 | C=CCCCCCCCCC(=O)O
34 | > 46 | COc1ccc(C(=O)c2ccccc2)c(O)c1
35 | > 46 | C#C[C@]1(O)CC[C@H]2[C@@H]3CCC4=CC(=O)CC[C@@H]4[C@H]3CC[C@@]21CC
36 | > 46 | COc1ccnc(CS(=O)c2nc3cc(OC(F)F)ccc3[nH]2)c1OC (configuration not stated)
37 | > 46 | O=C(CS(=O)Cc1ccco1)NC/C=C\COc1cc(CN2CCCCC2)ccn1 (configuration not stated)
38 | > 46 | CC(/C=C/C=C(\C)C(=O)O[C@@H]1O[C@H](CO[C@@H]2O[C@H](CO)[C@@H](O)[C@H](O)[C@H]2O)[C@@H](O)[C@H](O)[C@H]1O)=C\C=C\C=C(C)\C=C\C=C(/C)C(=O)O[C@@H]1O[C@H](CO[C@@H]2O[C@H](CO)[C@@H](O)[C@H](O)[C@H]2O)[C@@H](O)[C@H](O)[C@H]1O
39 | > 46 | Cc1c(C(N)=O)cc([N+](=O)[O-])cc1[N+](=O)[O-]
40 | > 46 | OCCN(CCO)c1nc(N2CCCCC2)c2nc(N(CCO)CCO)nc(N3CCCCC3)c2n1
41 | > 46 | CC[C@H]1OC(=O)C[C@@H](O)[C@H](C)[C@@H](O[C@@H]2O[C@H](C)[C@@H](O)[C@H](N(C)C)[C@H]2O)[C@@H](CCN2C[C@H](C)C[C@H](C)C2)C[C@@H](C)C(=O)/C=C/C(C)=C/[C@@H]1CO[C@@H]1O[C@H](C)[C@@H](O)[C@@H](OC)[C@H]1OC
42 | > 46 | CC(O)C(=O)O (configuration not stated)
43 | > 46 | CCN(CC)CC1CCCCN1CC(=O)N1c2ccccc2C(=O)Nc2cccnc21 (configuration not stated)
44 | > 46 | CC1=C[C@H](O)CC(C)(C)[C@H]1/C=C/C(C)=C/C=C/C(C)=C/C=C/C=C(C)/C=C/C=C(C)/C=C/C1=C(C)C[C@@H](O)CC1(C)C

Row | IC50 [µM] | SMILES
45 | > 46 | F[C@@]([C@](C[C@@H]5F)([H])[C@@](C4)([H])[C@@]2(C)[C@@]1([C@](COC(C)=O)=O)[C@]4([H])OC(C)(C)O1)([C@@H](O)C2)[C@](C=C3)(C)C5=CC3=O
46 | > 46 | O=C(CCBr)N1CCN(C(=O)CCBr)CC1
47 | > 46 | CN(C)CCCN1c2ccccc2C(C)(C)c2ccccc21
48 | > 46 | C[C@@H]1C[C@H]2[C@@H]3CCC4=CC(=O)C=C[C@]4(C)[C@@]3(F)[C@@H](O)C[C@]2(C)[C@@]1(O)C(=O)COC(=O)c1cccc(S(=O)(=O)[O-])c1.[Na+]
49 | > 46 | O=C([O-])[C@H](O)[C@@H](O)[C@H](O)[C@H](O)CO.O=C([O-])[C@H](O)[C@@H](O)[C@H](O)[C@H](O)CO.[Ba+2]
50 | > 46 | N[C@H](C(=O)O)c1ccc(O)cc1
51 | > 46 | CN1CC(=O)NC1=N
52 | > 46 | O=C1[C@@]([C@](CC5)(C)[C@]4([H])C([C@H]5O[C@@H]3[C@H](O[C@H]7[C@H](O)[C@@H](O)[C@H](O)[C@@H]([C@](O)=O)O7)[C@@H](O)[C@H](O)[C@@H]([C@@](O)=O)O3)(C)C)([H])[C@](CC4)(C)[C@@]2(C)C([C@]([C@@]6(C)CC2)([H])C[C@@](CC6)(C)[C@@](O)=O)=C1
53 | > 46 | C[C@H](Cn1cnc2c(N)ncnc21)OCP(=O)(O)O
54 | > 46 | CC1(C)S[C@@H]2[C@H](NC(=O)C(C(=O)[O-])c3ccccc3)C(=O)N2[C@H]1C(=O)[O-].[Na+].[Na+] (some centres not stated)
55 | > 46 | O=c1[nH]c2cc(C(F)(F)F)c(N3CCOCC3)cc2n(CP(=O)(O)O)c1=O
56 | > 46 | C=CC[N@@H+]1/C(=C/CO)[C@@H]2C[C@H]3[C@H]1CC[C@]31c3ccccc3N3C=C4[C@@H]5N(C=C2[C@H]31)c1ccccc1[C@@]51CC[C@H]2[C@H]1C[C@@H]4/C(=C\CO)[N@@H+]2CC=C.[Cl-].[Cl-]
57 | > 46 | O=C1O[C@H]([C@@H](O)CO)C(O)=C1O
58 | > 46 | CN1CCN(C(c2ccccc2)c2ccc(Cl)cc2)CC1.Cl (configuration not stated)
59 | > 46 | CC=CC(=O)N(CC)c1ccccc1C
60 | > 46 | Nc1ncnc2c1ncn2[C@@H]1O[C@H](CO)[C@@H](O)[C@H]1O
61 | > 46 | CC(=O)N[C@@H](CCC(=O)O)C(=O)O
62 | > 46 | Cc1ccc(C(C)C)c(O)c1
63 | > 46 | c1ccc2[nH]c(-c3cscn3)nc2c1
64 | > 46 | C[C@]12CCC(=O)C[C@@H]1CC[C@@H]1[C@@H]2CC[C@]2(C)C=CC[C@@H]12

Row | SMILES | IC50 [µM]
65 | O=c1n(Cl)c(=O)n(Cl)c(=O)n1Cl | > 46
66 | O=C(CCl)c1ccc(Oc2ccc(C(=O)CCl)cc2)cc1 | > 46
67 | CCOC(=O)CC(SP(=S)(OC)OC)C(=O)OCC (configuration not stated) | > 46
68 | CNC(=O)Oc1ccccc1C(=O)Nc1ccccc1 | > 46
69 | C=CCN1C[C@H](C)N([C@H](c2ccc(C(=O)N(CC)CC)cc2)c2cccc(OC)c2)C[C@H]1C | > 46
70 | NC[C@@H]1O[C@H](O[C@H]2[C@@H](O)[C@H](O[C@@H]3[C@@H](O)[C@H](N)C[C@H](N)[C@H]3O[C@H]3O[C@H](CO)[C@@H](O)[C@H](O)[C@H]3N)O[C@@H]2CO)[C@H](N)[C@@H](O)[C@@H]1O.O=S(=O)(O)O | > 46
71 | CC(=O)O[C@H]1C[C@@H]2CC[C@@H]3[C@H](CC[C@@]4(C)[C@H]3C[C@H]([N+]3(C)CCCCC3)[C@@H]4OC(C)=O)[C@@]2(C)C[C@@H]1[N+]1(C)CCCCC1.[Br-].[Br-] | > 46
72 | OC1=CC(\C=C(C#N)/C#N)=CC(O)=C1O | > 46
73 | CC1NCCOC1c1ccccc1.Cl (configuration not stated) | > 46
74 | C=CCN1CC[C@]23c4c5ccc(O)c4O[C@H]2[C@@H](O)C=C[C@H]3[C@H]1C5.Cl | > 46
75 | CC1OC(C)OC(C)O1 (configuration not stated) | > 46
76 | O=C(O)c1ccccc1O.Oc1cccc2cccnc12 | > 46
77 | N=C(N)N1CCc2ccccc2C1.N=C(N)N1CCc2ccccc2C1.O=S(=O)(O)O | > 46
78 | CN(C)C(=O)Oc1cccc([N+](C)(C)C)c1.[Br-] | > 46
79 | O=S(=O)(O)O.[2H]C([2H])([2H])[C@H](N)Cc1ccccc1.[2H]C([2H])([2H])[C@H](N)Cc1ccccc1 | > 46
80 | Cc1ncc(CNC(=O)N(CCCl)N=O)c(N)n1 | > 46
81 | Nc1nc(N)nc(NC2CC2)n1 | > 46
82 | CN1C(=O)C(C)(C2=CCCCC2)C(=O)N=C1O (configuration not stated) | > 46
